Experimental data published in US9630943B2, “Tetrahydronaphthyl(thio) carboxamides” (BAYER CROPSCIENCE AG, priority 2012, dated 2017).

Key:
[1] = system: Septoria tritici; assay: In vivo preventive test on Septoria tritici (leaf spot on wheat); conditions: wheat plants, preventive spray, dose 100 ppm, grading 24 days after contamination
Experimental: Wheat plants (“Scipion” variety), sown in starter cups on a 50/50 peat soil-pozzolana substrate and grown at 22° C., are treated at the 1-leaf stage (10 cm height) by spraying with the active ingredient prepared as described above. Plants, used as controls, are treated with the mixture of acetone/tween/DMSO/water not containing the active material. After 24 hours, the plants are contaminated by spraying the leaves with an aqueous suspension of cryopreserved Septoria tritici spores (500 000 spores per ml). […] Grading (% of efficacy) is carried out 24 days after the contamination, in comparison with the control plants.

[2] = system: Uromyces appendiculatus; assay: In vivo preventive test on Uromyces appendiculatus (bean rust); conditions: bean plants, preventive spray, dose 100 ppm, grading 11 days after contamination
Experimental: Plants, used as controls, are treated with the mixture of acetone/tween/DMSO/water not containing the active material. After 24 hours, the plants are contaminated by spraying the leaves with an aqueous suspension of Uromyces appendiculatus spores (150 000 spores per ml). […] Grading (% of efficacy) is carried out 11 days after the contamination, in comparison with the control plants.

[3] = Measurement of logP values by HPLC on reversed phase columns (EEC directive 79/831 Annex V.A8); type: physicochemical; conditions: for LogP^[a] / LogP[a]: method [a]; for LogP[a]: HPLC on reversed phase columns; for chromatographic logP: pH 2.7
[4] = system: Botrytis cinerea; assay: In vivo preventive test on Botrytis cinerea (grey mould); conditions: gherkin plants, preventive spray, dose 100 ppm, grading 4 to 5 days after contamination
Experimental: Gherkin plants (“Vert petit de Paris” variety), sown in starter cups on a 50/50 peat soil-pozzolana substrate and grown at 24° C., are treated at the Z11 cotyledon stage by spraying with the active ingredient prepared as described above. Plants, used as controls, are treated with the mixture of acetone/tween/DMSO/water not containing the active material. After 24 hours, the plants are contaminated by spraying the cotyledons with an aqueous suspension of cryopreserved Botrytis cinerea spores (50 000 spores per ml). The spores are suspended in a nutrient solution composed of 10 g/L of PDB, 50 g/L of D-Fructose, 2 g/L of NH4NO3 and 1 g/L of KH2PO4. […] Grading (% of efficacy) is carried out 4 to 5 days after the contamination, in comparison with the control plants.

[5] = system: Pyrenophora teres; assay: In vivo preventive test on Pyrenophora teres (net blotch on barley); conditions: barley plants, preventive spray, dose 100 ppm, grading 14 days after contamination
Experimental: Barley plants (“Plaisant” variety), sown in starter cups on a 50/50 peat soil-pozzolana substrate and grown at 22° C., are treated at the 1-leaf stage (10 cm height) by spraying with the active ingredient prepared as described above. Plants, used as controls, are treated with the mixture of acetone/tween/DMSO/water not containing the active material. After 24 hours, the plants are contaminated by spraying the leaves with an aqueous suspension of Pyrenophorateres spores (12 000 spores per ml). The spores are collected from a 12-day-old culture. […] Grading (% of efficacy) is carried out 14 days after the contamination, in comparison with the control plants.

[6] = system: Phakopsora pachyrhizi; assay: In vivo preventive test on Phakopsora pachyrhizi (soybeans); conditions: soybean plants, preventive spray, dose 10 ppm, evaluated 7 days after inoculation
[7] = system: Alternaria brassicae; assay: In vivo preventive test on Alternaria brassicae (leaf spot on radish); conditions: radish plants, preventive spray, dose 100 ppm, grading 6 days after contamination
Experimental: Radish plants (“Pernod Clair” variety), sown in starter cups on a 50/50 peat soil-pozzolana substrate and grown at 17° C., are treated at the cotyledon stage by spraying with the active ingredient prepared as described above. Plants, used as controls, are treated with the mixture of acetone/tween/DMSO/water not containing the active material. After 24 hours, the plants are contaminated by spraying the cotyledons with an aqueous suspension of Alternaria brassicae spores (50 000 spores per ml). The spores are collected from a 15-day-old culture. The contaminated radish plants are incubated at 20° C. and at 100% relative humidity. Grading (% of efficacy) is carried out 6 days after the contamination, in comparison with the control plants.

[8] = system: Sphaerotheca fuliginea; assay: In vivo preventive test on Sphaerotheca fuliginea (powdery mildew on cucurbits); conditions: gherkin plants, preventive spray, dose 100 ppm, grading 12 days after contamination
Experimental: Gherkin plants (“Vert petit de Paris” variety), sown in starter cups on a 50/50 peat soil-pozzolana substrate and grown at 24° C., are treated at the Z11 cotyledon stage by spraying with the active ingredient prepared as described above. Plants, used as controls, are treated with the mixture of acetone/tween/DMSO/water not containing the active material. After 24 hours, the plants are contaminated by spraying the cotyledons with an aqueous suspension of Sphaerotheca fuliginea spores (100 000 spores per ml). The spores are collected from infected plants. […] Grading (% of efficacy) is carried out 12 days after the contamination, in comparison with the control plants.

[9] = system: Pyricularia oryzae; type: in vivo; conditions: rice plants, preventive spray, dose 500 ppm, grading 6 days after contamination

In the case of `CCCC1(C)CCCc2c(NC(=O)c3cn(C)nc3C(F)F)cccc21` (centres unmarked) [Example 94], the biological efficacy [1] is reported as ≥ 70%, the biological efficacy [2] is reported as ≥ 80% and the “LogP^[a]” value [3] is reported as 4.08^[a].
With `CCCC1CCc2c(NC(=O)c3cn(C)nc3C(F)F)cccc2C1C` (mixture of isomers) [Example 95] the biological efficacy [4] was ≥ 80% and the “LogP[a]” value [3] was 4.18^[a].
For `CC(C)C1CCCc2c(NC(=O)c3cn(C)nc3C(F)F)cccc21` (centres unmarked) [Example 98], the biological efficacy [5] was ≥ 90%, the biological efficacy [4] was ≥ 90% and the “LogP[a]” value [3] was 3.73^[a]. For the same compound, the biological efficacy [6] was ≥ 70%.
In the case of `CC1(C)CCc2c(cccc2NC(=S)c2ccoc2C(F)F)C1` [Example 96], the biological efficacy [7] is reported as ≥ 70% and the “LogP[a]” value [3] is reported as 4.39^[a].
With `Cc1nc(C(F)F)c(C(=S)Nc2cccc3c2CCC(C)(C)C3)s1` [Example 97, 4-(difluoromethyl)-N-(6,6-dimethyl-5,6,7,8-tetrahydronaphthalen-1-yl)-2-methyl-1,3-thiazole-5-carbothioamide] the biological efficacy [8] was ≥ 80% and the chromatographic logP [3] was 4.16.
For `Cc1nc(C(F)F)c(C(=O)Nc2cccc3c2CCCC3(C)C)s1` [Example 3], the biological efficacy [9] was ≥ 90% and the “LogP^[a]” value [3] was 3.64^[a].
With `CON=C1CCCc2c(NC(=S)c3ccoc3C(F)F)cccc21` [Example 83] the “LogP^[a]” value [3] was 3.70^[a].
With `Cc1nn(C)c(C)c1C(=O)Nc1cccc2c1CCC(C)(C)C2C` (racemic) [Example 20] the “LogP^[a]” value [3] was 3.25^[a].
In the case of `C=C1c2c(cccc2NC(=O)c2cn(C)nc2C(F)F)CCC1(C)C` [Example 16, 3-(difluoromethyl)-N-(7,7-dimethyl-8-methylene-5,6,7,8-tetrahydronaphthalen-1-yl)-1-methyl-1H-pyrazole-4-carboxamide], the chromatographic logP [3] is reported as 2.31.
In the case of `Cn1cc(C(=O)Nc2cccc3c2CCCC3(C)C)c(C(F)F)n1` [Example 4], the “LogP^[a]” value [3] is reported as 3.26^[a].
For `CC1(C)CCc2c(cccc2NC(=O)c2nccnc2I)C1` [Example 67], the “LogP^[a]” value [3] was 4.01^[a].
For `Cn1nc(C(F)(F)F)c(C(=O)Nc2cccc3c2CCC(C)(C)C3)c1F` [Example 86], the “LogP^[a]” value [3] was 3.99^[a].
For `CCON=C1CCCc2c(NC(=O)c3sc(C)nc3CC)cccc21` [Example 81], the “LogP^[a]” value [3] was 3.37^[a].
In the case of `CCc1nc(C)sc1C(=O)Nc1ccc(F)c2c1CCCC2(C)C` [Example 59], the “LogP^[a]” value [3] is reported as 3.85^[a].
